Measurements published in PMC11928584, “H105A peptide eye drops promote photoreceptor survival in murine and human models of retinal degeneration” (Communications Medicine, 2025).
Where a SMILES comes first, the peptide text is derived from it.

Legend:
[1] = tested on: photoreceptors of rd10 mice; assay: PSVue-550 fluorescence fundoscopy of photoreceptor cell death (PS externalization); assay type: in vivo, mouse; conditions: for PS externalization / photoreceptor cell death vs vehicle: daily eye drops 5 µl of 1 mg/ml from P15, PSVue-550 fundoscopy P21
Text: (§1) Fluorescence fundoscopy with a cell death probe was chosen as a simple method for monitoring photoreceptor cell death in alive animals. A fluorescent probe, bis (zinc^2+-dipicolylamine)-550, (PSVue®-550) (Molecular Targeting Technologies Inc, cat. P-1005) was reconstituted in Hanks’ Balanced Salt Solution (HBSS, Quality Biological, cat. 114-062-101) according to the manufacturer’s instructions[28],[36]. This probe is suitable for in vivo use to specifically and transiently label dying photoreceptors, such as in living rats with retinal degeneration the Royal College of Surgeons rat model, in a non-invasive and non-toxic method without the need of intraocular injection. Briefly, a stock of 1 mM solution of PSVue®-550 was stored in the dark at 4 °C and used within 14 days directly as eye drop. After 3-4 h of light onset each mouse received eye drops of 5–10 μl of 1 mM PSVue®-550 in the left eye and HBSS in the right eye as control. The eye drop volume was chosen such that the eye cavity was filled without spillage outside the eye, and it was modified depending on eye size. […] To obtain in vivo retinal images of fundi, at 24 h after the probe was administered, the mice were anesthetized, and pupils were dilated with 1% tropicamide for 5 min and kept hydrated with GenTeal. Fluorescence was imaged using a retinal imaging microscope (Micron III, Phoenix Research Labs) using an FF02- 475/50 nm excitation filter (Semrock, Inc.). We observed some variability in optic nerve (ON) fluorescence that could not be readily explained, so the optic nerve was excluded from analyses in all samples.
(§2) To determine the natural history of photoreceptor death of rd10 and rd10/Serpinf1^-/- mice, we assessed photoreceptor cell death in live mice using the fluorescent probe termed PSVue® 550 to monitor PS externalization by fluorescence fundoscopy (Supplementary Fig. 2). Given the reports about the retinas of rd10 mice starting to show histological changes at P16, and with a peak in the number of TUNEL+ nuclei in the ONL at P17-18[13], we monitored PS externalization in photoreceptors of these mice undergoing degeneration before death onset. Eye drops of 1 mM PSVue® 550 solution in HBSS were administered to left eyes and HBSS (vehicle) to their contralateral right eyes of each mouse at ages P16, P20, P22 or P24. PS externalization was determined by fluorescence fundoscopy 24 h post-administration. PSVue labeling of phosphatidylserine (PS) externalization associated with photoreceptor cell death in the rd10 retina (Supplementary Figs. 2, 3).
(§3) Fig. 2 Effect of PEDF peptide eye drops on protection against photoreceptor cell death in rd10 and rd10/Serpinf1^-/- mice. a Illustration of the experimental timeline of peptide application. Eye drops containing 5 µl of 17-mer, H105A, or R99A peptides in HBSS were administered daily to eyes of rd10 and rd10/Serpinf1^-/- mice from P15 to P20. Vehicle (HBSS) was applied in contralateral eyes. At P20, PSVue® was applied via eye drops, and fluorescence fundoscopy was conducted at P21 to assess photoreceptor cell death. RE and LE refer to the right and left eyes, respectively. b Fluorescence fundoscopy micrographs. Representative fluorescence fundoscopy images of retinas from mice treated as in Panel a with eyedrops of 1 mg/ml of each peptide. Quantification of fluorescence intensity was performed using ImageJ, with average intensity values corrected for background fluorescence from eyes that had not received PSVue or peptides. Each line represents data from one animal comparing treated and contralateral eyes, with five eyes (n = 5) per condition. Statistical significance was determined by paired t-test (****p ≤ 0.0001, and ns > 0.05). Scale bar = 0.5 mm. c Dose response of peptide eye drops. Representative fluorescence fundoscopy micrographs showing retinas treated with varying concentrations of 17-mer and H105A peptides (0.0 mg/ml to 1.0 mg/ml) in rd10 and rd10/Serpinf1^-/- mice. […]

[2] = tested on: photoreceptors of rd10/Serpinf1-/- mice; assay: as above; assay type: in vivo, mouse; conditions: daily eye drops 5 µl of 1 mg/ml from P15, PSVue-550 fundoscopy P21
Text: as §1, §2, §3

[3] = tested on: photoreceptors of rd10 mice; assay: ONL thickness (histology, spider plot), rd10 mice; assay type: in vivo, mouse; conditions: for OS length and ONL thickness vs vehicle-treated or untreated eyes: daily eye drops, P21
Protocol: Both eyes were oriented before enucleation to allow sectioning along the dorsal/ventral axis. Enucleated eyes from rd10 and rd10/Serpinf1^-/- mice were incised in the cornea and fixed in 2.5% glutaraldehyde for 20 min and then in 10% neutral buffered formalin at 4 °C for at least 48 h, followed by paraffin embedding, sectioning, and staining with either H&E or immunofluorescence procedures. Slides containing retinal sections were deparaffinized by immersing the slides in various subsequent ethanol dilutions(100%, 95%,70% and 50%), then rinsed with phosphate-buffered saline, pH 7.4 (PBS, Quality Biological, 119-069-101), followed by incubation in blocking buffer containing 0.5% normal donkey serum (Abcam, ab7475), 0.5% bovine serum albumin (BSA, GoldBio, A-420-100), 0.1% Triton X-100 (Sigma, T8787-100) in PBS pH 7.4 for 2 h at room temperature. For fluorescence microscopy, antibodies, and 0.1 µg/ml DAPI were used to immunostain and counterstain the nuclei, respectively. Antibodies used in the study are listed in Supplementary Table 3. Images were acquired using a ZEIS 700 confocal microscope. Fluorescence intensity was quantified using ImageJ, and a rectangle was selected around regions of interest (ROIs), channels were split for multiple antibodies, threshold was adjusted, noise was de-speckled, and fluorescence intensity was measured.
To generate spider plots, the ONL thickness was measured from images passing through the optic nerve (ON) acquired with light microscopy of the retina sections stained with H&E or images of retina sections stained with DAPI with a dorsal-ventral orientation. The ONL thickness in the entire retina sections was measured at 5 different positions from both sides of the ON using ImageJ[28]. Alternatively, for DAPI stained images, a customed macro implemented in ImageJ was used to select only the ONL.
Fig. 4 Effect of eyedrops of 17-mer and H105A peptides on photoreceptor morphology of rd10 and rd10/Serpinf1^-/- mice. a Illustration of the experimental timeline of peptide application. RE and LE refer to the right and left eyes, respectively. Histological Evaluation. Representative microphotographs of retina sections from rd10 (b) and rd10/Serpinf1^-/- (c) mice treated with 17-mer, H105A, or R99A peptides at 1 mg/ml, or with vehicle (HBSS), compared to wild type C57BL/6 J mice. Sections were stained with hematoxylin and eosin. Spider Plot illustrate the thickness of the outer nuclear layer (ONL) in rd10 (d) and rd10/Serpinf1^-/- (e) mice. Five retinas (n = 5) per group were analyzed and each data point represents the average ± SD per location relative to the optic nerve (ON), analyzed using One-way ANOVA with Šídák’s multiple comparisons test. […]

[4] = tested on: PEDF-R; conditions: cited from earlier work

SMILES: CC[C@H](C)[C@H](NC(=O)[C@H](CC(C)C)NC(=O)[C@H](CC(=O)O)NC(=O)[C@H](Cc1ccc(O)cc1)NC(=O)[C@H](Cc1ccc(O)cc1)NC(=O)[C@H](CC(C)C)NC(=O)[C@H](C)NC(=O)[C@H](CCCNC(=N)N)NC(=O)[C@H](C)NC(=O)[C@@H](NC(=O)[C@@H](NC(=O)[C@H](CO)NC(=O)[C@H](CCC(=O)O)NC(=O)[C@@H](NC(=O)[C@H](CCCNC(=N)N)NC(=O)[C@@H](N)CCC(N)=O)[C@@H](C)O)[C@@H](C)CC)[C@@H](C)CC)C(=O)N[C@@H](CO)C(=O)O [H105A] (H-QRTESIIARALYYDLIS-OH)
- PS externalization / photoreceptor cell death vs vehicle [1]: diminished fundi fluorescence
- eye drop concentration effective in restraining PS externalization (as low as) ([1]; titration 0.0-1.0 mg/ml, daily eye drops): 0.5 mg/mL
- PS externalization / photoreceptor cell death vs vehicle [2]: diminished fundi fluorescence
- ONL thickness ([3]; daily eye drops 5 µl of 1 mg/ml P15-P24, assessed P25): a rescue in the ONL thickness
- OS length and ONL thickness vs vehicle-treated or untreated eyes [3]: longer OS and thicker outer nuclear layer
- ONL thickness ([3]; eye drops every other day P15-P23, assessed P25): a rescue in the ONL thickness
- affinity for PEDF-R [4]: have affinity for PEDF-R

SMILES: CC[C@H](C)[C@H](NC(=O)[C@H](CC(C)C)NC(=O)[C@H](CC(=O)O)NC(=O)[C@H](Cc1ccc(O)cc1)NC(=O)[C@H](Cc1ccc(O)cc1)NC(=O)[C@H](CC(C)C)NC(=O)[C@H](C)NC(=O)[C@H](CCCNC(=N)N)NC(=O)[C@H](Cc1c[nH]cn1)NC(=O)[C@@H](NC(=O)[C@@H](NC(=O)[C@H](CO)NC(=O)[C@H](CCC(=O)O)NC(=O)[C@@H](NC(=O)[C@H](C)NC(=O)[C@@H](N)CCC(N)=O)[C@@H](C)O)[C@@H](C)CC)[C@@H](C)CC)C(=O)N[C@@H](CO)C(=O)O [R99A] (H-QATESIIHRALYYDLIS-OH)
- PS externalization / photoreceptor cell death vs vehicle [1]: no major efficacy
- PS externalization / photoreceptor cell death vs vehicle [2]: no major efficacy
- OS length and ONL thickness vs vehicle-treated or untreated eyes [3]: no effect
- affinity for PEDF-R [4]: lacks PEDF-R affinity
